# Measured values taken from patent publication US20210395210A1, “INHIBITION OF BACTERIAL CHAPERONIN SYSTEMS” (THE TRUSTEES OF INDIANA UNIVERSITY, priority 2018, published 2021).
# Like-named read-outs stand apart in the source and are kept apart here.
# Tests used:
# human HSP60/10 = biological target: T1, human HSP60/10 (Homo sapiens, UniProt P10809); experiment: HSP60/10-mediated dMDH refolding assay; type: biochemical; details: human HSP60/10-dMDH refolding assay
# T1 construct: octa-Histidine tag (TEV-cleavable) (N, cleaved yes); made in house; host or cells: HSP60 in E. coli Rosetta 2 (DE3); HSP10 in Rosetta 2 (DE3) pLysS
# Experimental: Reagent preparation: For these assays, four primary reagent stocks were prepared: 1) GroEUES-dMDH or HSP60/10-dMDH binary complex stock; 2) ATP initiation stock; 3) EDTA quench stock; 4) MDH enzymatic assay stock. Denatured MDH (dMDH) was prepared by 2-fold dilution of MDH (5 mg/ml, soluble pig heart MDH from Roche, product #10127248001) with denaturant buffer (7 M guanidine-HCl, 200 mM Tris, pH 7.4, and 50 mM DTT). MDH was completely denatured by incubating at room temperature for 45 min. The binary complex solutions were prepared by slowly adding the dMDH stock to a stirring stock with GroEL (or HSP60) in folding buffer (50 mM Tris-HCl, pH 7.4, 50 mM KCl, 10 mM MgCl2, and 1 mM DTT), followed by addition of GroES (or HSP10). The binary complex stocks were prepared immediately prior to dispensing into the assay plates and had final protein concentrations of 83.3 nM GroEL (Mr 800 kDa) or HSP60 (Mr 400 kDa), 100 nM GroES or HSP10 (Mr 70 kDa), and 20 nM dMDH in folding buffer. For the ATP initiation stock, ATP solid was diluted into folding buffer to a final concentration of 2.5 mM. Quench solution contained 600 mM EDTA (pH 8.0). The MDH enzymatic assay stock consisted of 20 mM sodium mesoxalate and 2.4 mM NADH in reaction buffer (50 mM Tris-HCl, pH 7.4, 50 mM KCl, and 1 mM DTT).
# Assay Protocol: First, 30 μL aliquots of the GroEL/ES-dMDH or HSP60/10-dMDH binary complex stocks were dispensed into clear, 384-well polystyrene plates. […] The chaperonin-mediated refolding cycles were initiated by addition of 20 μL of ATP stock (reagent concentrations during refolding cycle: 50 nM GroEL or HSP60, 60 nM GroES or HSP10, 12 nM dMDH, 1 mM ATP, and compounds of 100 μM to 46 nM, 3-fold dilution series). The refolding reactions were incubated at 37° C. […] Next, the assay was quenched by addition of 10 μL of the EDTA to final concentration of 100 mM. […] A340 nm measurements were recorded at 0.5 minutes (start point) and at successive time points until the amount of NADH consumed reached ˜90% (end point, generally between 20-35 minutes). The differences between the start and end point A340 values were used to calculate the % inhibition of the GroEL/ES or HSP60/10 machinery by the compounds. […] Results presented represent the averages of IC50 values obtained from at least quadriplicate (duplicate of duplicate) replicates.
# [1] = tested on: Enterococcus faecium (ATCC 19434); experiment: Bacterial proliferation assay, E. faecium; type: cell-based
# From the text: (§1) Bacterial Strains: Enterococcus faecium—(Orla-Jensen) Schleifer and Kilpper-Balz strain NCTC 7171 (ATCC 19434); Drug sensitive Staphylococcus aureus—Rosenbranch strain Seattle 1945 (ATCC 25923); Methicillin resistant S. aureus (MRSA)—Rosenbach strain HPV107 (ATCC BAA-44); Klebsiella Pneumonia—(Schroeter) Trevisan strain NCTC 9633 (ATCC 13883); Acinetobacter baumannii—Bouvet and Grimont strain 2208 (ATCC 19606); Pseudomonas aeruginosa—(Schroeter) Migula strain NCTC 10332 (ATCC 10145); Enterobacter cloacae—E. cloacae, subsp. cloacae (Jordan) Hormaeche and Edwards strain CDC 442-68 (ATCC 13047).
# (§2) Growth Media: All bacteria were grown in Brain Heart Infusion (BHI) broth/agar (Becton, Dickinson and Company). All liquid cultures were grown in BHI media supplemented with 25 mg/L Ca^2+ and 12.5 mg/L Mg^2+ to mimic free physiological concentrations of these cations. A 10 mg/mL Ca^2+ stock solution was prepared by dissolving 3.68 g of CaCl2.2H2O in 100 mL of deionized water, and a 10 mg/mL Mg^2+ stock solution was prepared by dissolving 8.36 g of MgCl2.6H2O in 100 mL deionized water. Both stock solutions were filter-sterilized using 0.2 μm pore size cellulose-acetate filters. 2.5 mL of the sterile 10 mg/mL Ca^2+ stock and 1.25 mL of the sterile 10 mg/mL Mg^2+ stock solutions were added per 1 L of autoclaved BHI medium to obtain 25 mg/L Ca^2+ and 12.5 mg/L Mg^2+ ions, respectively.
# (§3) General Assay Protocol: Stock bacterial cultures were streaked onto BHI agar plates and grown overnight at 37° C. Fresh aliquots of broth were inoculated with single bacterial colonies and the cultures were grown overnight at 37° C. with shaking (240 rpm) in cation adjusted BHI media. The following morning, the overnight cultures were sub-cultured (1:5 dilution) into fresh aliquots of cation adjusted BHI media and grown at 37° C. for 1-2 hours with shaking. After 2 h, cultures were diluted into fresh media to achieve final OD600 readings of 0.017. Aliquots of these diluted cultures (30 μL) were added to clear, flat-bottom, 384-well polystyrene plates that were stamped with 0.5 μL of test compounds in 20 μL media. […] Plates were sealed with “Breathe Easy” oxygen permeable membranes (Diversified Biotech) and left to incubate at 37° C. without shaking (stagnant assay). OD600 nm readings were taken at either 6-8 h (S. aureus, MRSA, K. pneumonia, E. cloacae, and P. aeruginosa) or 24 h (E. faecium and A. baumannii). A second set of baseline control plates were prepared analogously, but without any bacteria added, to correct for possible compound absorbance and/or precipitation. Plates were then read at 600 nm using a Molecular Devices SpectraMax Plus384 microplate reader. […] Results presented represent the averages of EC50 values obtained from at quadriplicate (duplicate of duplicate) replicates.
# [2] = tested on: Klebsiella Pneumonia (ATCC 13883); experiment: Bacterial proliferation assay, K. pneumoniae; type: cell-based
# From the text: as §1, §2, §3
# [3] = tested on: Acinetobacter baumannii (ATCC 19606); experiment: Bacterial proliferation assay, A. baumannii; type: cell-based
# From the text: as §1, §2, §3
# [4] = tested on: Pseudomonas aeruginosa (ATCC 10145); experiment: Bacterial proliferation assay, P. aeruginosa; type: cell-based
# From the text: as §1, §2, §3
# [5] = read-out: HSP60/10-dMDH Refolding IC50
# [6] = log(IC50) ± standard deviation, read-out: HSP60/10-dMDH Refolding Assay log(IC50) (converted)
# [7] = ATCC19434, OD600 at 24 h, read-out: Bacterial Proliferation EC50 E. faecium
# [8] = ATCC19434, log of EC50 (μM scale), with standard deviation, read-out: log(EC50) Bacterial Proliferation Assay C. faecium (converted)
# [9] = ATCC13883, OD600 at 6-8 h, read-out: Bacterial Proliferation EC50 K. pneumoniae
# [10] = ATCC13883, log of EC50 (μM scale), with standard deviation, read-out: log(EC50) Bacterial Proliferation Assay K. pneumoniae (converted)
# [11] = ATCC19606, OD600 at 24 h, read-out: Bacterial Proliferation EC50 A. baumannii
# [12] = ATCC19606, log of EC50 (μM scale), with standard deviation, read-out: log(EC50) Bacterial Proliferation Assay A. baumannii (converted)
# [13] = ATCC10145, OD600 at 6-8 h, read-out: Bacterial Proliferation EC50 P. aeruginosa
# [14] = ATCC10145, log of EC50 (μM scale), with standard deviation, read-out: log(EC50) Bacterial Proliferation Assay P. aeruginosa (converted)
# [15] = ATCC19434, 24 h, read-out: Bacterial Proliferation EC50 E. faecium
# [16] = ATCC19434, read-out: log(EC50) Bacterial Proliferation Assay C. faecium (converted)
# [17] = ATCC13883, read-out: Bacterial Proliferation EC50 K. pneumoniae
# [18] = ATCC13883, read-out: log(EC50) Bacterial Proliferation Assay K. pneumoniae (converted)
# [19] = ATCC19606, 24 h, read-out: Bacterial Proliferation EC50 A. baumannii
# [20] = ATCC19606, read-out: log(EC50) Bacterial Proliferation Assay A. baumannii (converted)
# [21] = ATCC10145, read-out: Bacterial Proliferation EC50 P. aeruginosa
# [22] = ATCC10145, read-out: log(EC50) Bacterial Proliferation Assay P. aeruginosa (converted)
# T1 sequence (P10809 27-573): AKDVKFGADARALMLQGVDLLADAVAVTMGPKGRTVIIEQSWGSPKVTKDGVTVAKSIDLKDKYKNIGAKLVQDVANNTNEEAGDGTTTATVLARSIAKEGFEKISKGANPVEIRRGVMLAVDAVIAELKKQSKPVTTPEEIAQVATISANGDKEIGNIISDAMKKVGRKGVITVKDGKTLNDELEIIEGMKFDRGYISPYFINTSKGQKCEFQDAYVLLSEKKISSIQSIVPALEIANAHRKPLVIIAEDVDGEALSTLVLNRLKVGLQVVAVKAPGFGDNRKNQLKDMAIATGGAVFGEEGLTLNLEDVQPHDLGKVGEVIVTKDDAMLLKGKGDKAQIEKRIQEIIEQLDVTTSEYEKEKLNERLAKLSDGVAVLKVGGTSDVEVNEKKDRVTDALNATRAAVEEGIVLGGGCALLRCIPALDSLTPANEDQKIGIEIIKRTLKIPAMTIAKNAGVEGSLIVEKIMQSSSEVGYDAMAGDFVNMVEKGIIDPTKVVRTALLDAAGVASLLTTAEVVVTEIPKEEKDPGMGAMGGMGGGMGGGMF
Structure (SMILES),IC50 (human HSP60/10; [5]),IC50 (human HSP60/10; [6]),"EC50 [1, 7]","EC50 [1, 8]","EC50 [2, 9]","EC50 [2, 10]","EC50 [3, 11]","EC50 [3, 12]","EC50 [4, 13]","EC50 [4, 14]","EC50 [1, 15]","EC50 [1, 16]","EC50 [2, 17]","EC50 [2, 18]","EC50 [3, 19]","EC50 [3, 20]","EC50 [4, 21]","EC50 [4, 22]"
"COc1ccc(Br)cc1C(=O)Nc1ccc(Sc2nc3ccccc3s2)cc1 [Compound 35, N-(4-(Benzo[d]thiazol-2-ylthio)phenyl)-5-bromo-2-methoxybenzamide]",> 100 µM,> 100 µM,> 100 µM,> 100 µM,> 100 µM,> 100 µM,> 100 µM,> 100 µM,> 100 µM,> 100 µM,–,–,–,–,–,–,–,–
"CO[C@H]1/C=C/O[C@@]2(C)Oc3c(C)c(O)c4c(O)c(c(/C=N/N5CCN(C)CC5)c(O)c4c3C2=O)NC(=O)/C(C)=C\C=C\[C@H](C)[C@H](O)[C@@H](C)[C@@H](O)[C@@H](C)[C@H](OC(C)=O)[C@@H]1C [Rifampicin, rifampicin, reference compound]",> 100 µM,> 100 µM,0.13 µM,0.126 µM,11 µM,11 µM,1.3 µM,1.32 µM,7.8 µM,7.76 µM,–,–,–,–,–,–,–,–
"O=C(Nc1ccc(Sc2nc3ccccc3s2)c(Cl)c1)c1cc(Br)ccc1O [Compound 3, N-(4-(Benzo[d]thiazol-2-ylthio)-3-chlorophenyl)-5-bromo-2-hydroxybenzamide]",> 100 µM,> 100 µM,–,–,–,–,–,–,–,–,15 µM,14.8 µM,> 100 µM,> 100 µM,> 100 µM,> 100 µM,> 100 µM,> 100 µM
"COc1ccccc1C(=O)Nc1cccc(Cl)c1 [Compound 40, N-(3-Chlorophenyl)-2-methoxybenzamide]",> 100 µM,> 100 µM,> 100 µM,> 100 µM,> 100 µM,> 100 µM,> 100 µM,> 100 µM,> 100 µM,> 100 µM,–,–,–,–,–,–,–,–
"O=C(Nc1ccccc1)c1cccc(Br)c1O [Compound 14, 3-Bromo-2-hydroxy-N-phenylbenzamide]",> 100 µM,> 100 µM,> 100 µM,> 100 µM,> 100 µM,> 100 µM,> 100 µM,> 100 µM,> 100 µM,> 100 µM,–,–,–,–,–,–,–,–
"O=C(Nc1ccc(Sc2nc3ccccc3s2)c(Cl)c1)c1cccc(Br)c1O [Compound 2, N-(4-(Benzo[d]thiazol-2-ylthio)-3-chlorophenyl)-3-bromo-2-hydroxybenzamide]",6.9 µM,6.92 µM,–,–,–,–,–,–,–,–,24 µM,23.4 µM,> 100 µM,> 100 µM,2.9 µM,2.88 µM,> 100 µM,> 100 µM
"O=C(Nc1ccccc1)c1cc(Br)cc(Br)c1 [Compound 26, 3,5-Dibromo-N-phenylbenzamide]",> 100 µM,> 100 µM,> 100 µM,> 100 µM,> 100 µM,> 100 µM,> 100 µM,> 100 µM,> 100 µM,> 100 µM,–,–,–,–,–,–,–,–
"COc1ccccc1C(=O)Nc1ccccc1 [Compound 44, 2-Methoxy-N-phenylbenzamide]",> 100 µM,> 100 µM,> 100 µM,> 100 µM,> 100 µM,> 100 µM,> 100 µM,> 100 µM,> 100 µM,> 100 µM,–,–,–,–,–,–,–,–
"O=C(Nc1ccc(Sc2nc3ccccc3s2)cc1)c1cc(Br)cc(Br)c1O [Compound 5, N-(4-(Benzo[d]thiazol-2-ylthio)phenyl)-3,5-dibromo-2-hydroxybenzamide]",4.7 µM,4.68 µM,–,–,–,–,–,–,–,–,0.88 µM,0.891 µM,> 100 µM,> 100 µM,> 100 µM,> 100 µM,> 100 µM,> 100 µM
"O=C(Nc1ccc(Sc2nc3ccccc3s2)cc1)c1ccccc1 [Compound 22, N-(4-(Benzo[d]thiazol-2-ylthio)phenyl)benzamide]",> 100 µM,> 100 µM,> 100 µM,> 100 µM,> 100 µM,> 100 µM,> 100 µM,> 100 µM,> 100 µM,> 100 µM,–,–,–,–,–,–,–,–
"O=C(Nc1ccc(Sc2nc3ccccc3s2)c(Cl)c1)c1cc(Br)cc(Br)c1O [Compound 1, N-(4-(Benzo[d]thiazol-2-ylthio)-3-chlorophenyl)-3,5-dibromo-2-hydroxybenzamide]",4.2 µM,4.17 µM,–,–,–,–,–,–,–,–,0.52 µM,0.513 µM,> 100 µM,> 100 µM,66 µM,66.1 µM,> 100 µM,> 100 µM
